Earlier results, collected in US20040034083A1, “Combination therapy for the treatment of Parkinson's disease with cyclooxygenase-2 (COX2) inhibitor(s)” (priority 2002, published 2004).

Key:
[1] = levodopa/carbidopa therapy of PD

Compound: N[C@@H](Cc1ccc(O)c(O)c1)C(=O)O [levodopa]
- duration of effectiveness after initiation of therapy [1]: about 5 years
- fraction of levodopa that reaches the brain (levodopa alone administered orally): about 1%
- fraction of orally administered levodopa metabolized by decarboxylase (then unable to cross the BBB) (oral administration, without carbidopa): Up to 99%
